Assay results published in paper PMC9739877, “Discovery and Mechanistic Investigation of Piperazinone Phenylalanine Derivatives with Terminal Indole or Benzene Ring as Novel HIV-1 Capsid Modulators” (Molecules, 2022).

What was measured:
[1] = human, microsomes
HIV-2 (ROD) = assay: Anti-HIV-2 (ROD) activity in MT-4 cells, MTT assay; format: cell-based; details: Human immunodeficiency virus 2, MT4, 50% protection against HIV-induced cytotoxicity
Experimental: (§1) II. In vitro anti-HIV Assay in MT-4 Cells
(§2) Evaluation of the antiviral activity of the compounds against HIV in MT-4 cells was performed using the MTT assay as described below. Stock solutions (10 × final concentration) of test compounds were added in 25 µL volumes to two series of triplicate wells to allow simultaneous evaluation of their effects on mock- and HIV-infected cells at the beginning of each experiment. Serial 5-fold dilutions of test compounds were made directly in flat-bottomed 96-well microtiter trays using a Biomek 3000 robot (Beckman Instruments, Fullerton, CA). Untreated HIV- and mock-infected cell samples were included as controls. HIV stock (50 µL) at 100-300 CCID50 (50 % cell culture infectious doses) or culture medium was added to either the infected or mock-infected wells of the microtiter tray. Mock-infected cells were used to evaluate the effects of the test compound on uninfected cells to assess the test compounds' cytotoxicity. Exponentially growing MT-4 cells were centrifuged for 5 minutes at 220 g, and the supernatant was discarded. […]
(§3) cells/mL, and 50 µL volumes were transferred to the microtiter tray wells. Five days after infection, the viability of mock-and HIV-infected cells was examined spectrophotometrically using the MTT assay. The MTT assay is based on the reduction of yellow colored 3-(4,5-dimethylthiazol-2-yl)-2,5-diphenyltetrazolium bromide (MTT) (Acros Organics) by mitochondrial dehydrogenase activity in metabolically active cells to a blue-purple formazan that can be measured spectrophotometrically. The absorbances were read in an eight-channel computer-controlled photometer (Infinite M1000, Tecan), at two wavelengths (540 and 690 nm). All data were calculated using the median absorbance value of three wells. […]
(§4) was defined as the concentration of the test compound that reduced the absorbance (OD540) of the mock-infected control sample by 50%. The concentration achieving 50% protection against the cytopathic effect of the virus in infected cells was defined as the […]

HIV-1 (IIIB) = assay: microbe, parasite or virus in culture; format: cell-based; details: Human immunodeficiency virus 1, MT4, 50% protection against HIV-induced cytotoxicity, MT-4 cells, MTT
Experimental: as §1, §2, §3, §4

in vitro [2] = details: both, human, plasma
HIV-1 CA monomer = target: T1, HIV-1 CA monomer (Human immunodeficiency virus type 1 group M subtype B, UniProt P12493); assay: biochemical; format: binding; details: SPR
T1 construct: a vector containing C-terminally His-tagged HIV-1NL4-3CA; His6 (CA-H6) (C); made in house; host or cells: E. coli BL21-Codon Plus (DE3)-RIL

in vitro [3] = details: human, microsomes
HIV-1 CA hexamer = HIV-1 CA hexamer (Human immunodeficiency virus type 1 group M subtype B, UniProt P12493, A146C/E177C/M317A/W316A); assay: SPR binding to disulfide-stabilized hexameric HIV-1 CA
MT-4 cells = assay: Cytotoxicity in mock-infected MT-4 cells, MTT assay; format: cell-based; details: 50% reduction of viability of mock-infected MT-4 cells
Experimental: (§5) II. In vitro anti-HIV Assay in MT-4 Cells […]
(§6) performed using the MTT assay as described below. Stock solutions (10 × final concentration) of test compounds were added in 25 µL volumes to two series of […]
(§7) infected cells at the beginning of each experiment. Serial 5-fold dilutions of test […]
(§8) Biomek 3000 robot (Beckman Instruments, Fullerton, CA). Untreated HIV- and mock-infected cell samples were included as controls. HIV stock (50 µL) at 100-300 CCID50 […]
(§9) or mock-infected wells of the microtiter tray. Mock-infected cells were used to evaluate […]
(§10) cytotoxicity. Exponentially growing MT-4 cells were centrifuged for 5 minutes at 220 g, and the supernatant was discarded. […]
(§11) cells/mL, and 50 µL volumes were transferred to the microtiter tray wells. Five days […]
(§12) spectrophotometrically using the MTT assay. The MTT assay is based on the reduction […]
(§13) M1000, Tecan), at two wavelengths (540 and 690 nm). All data were calculated using the median absorbance value of three wells.
(§14) (OD540) of the mock-infected control sample by 50%. The concentration achieving 50%

[4] = as above; format: cell-based; details: human, 50% reduction of viability of mock-infected MT-4 cells
Experimental: as §5, §6, §7, §8, §9, §10, §11, §12, §13, §14

## O=C(O)Cc1ccccc1Nc1c(Cl)cccc1Cl [Diclofenac, diclofenac]
[1]
  CLint(liver): 334.8 mL/min/kg
  CLint(mic): 372.0 µL/min/mg
  T1/2: 3.7 min

## COc1ccc(N(C)C(=O)[C@H](Cc2cc(F)cc(F)c2)NC(=O)CN2CCN(C(=O)Cc3c[nH]c4ccc(F)cc34)CC2=O)cc1 [F2-7f, (S)-3-(3,5-difluorophenyl)-2-(2-(4-(2-(5-fluoro-1H-indol-3-yl)acetyl)-2-oxopiperazin-1-yl)acetamido)-N-(4-methoxyphenyl)-N-methylpropanamide]
HIV-2 (ROD)
  EC50: 5.07 ± 0.63 µM
HIV-1 (IIIB)
  EC50: 5.89 ± 2.03 µM
In vitro [2]
  half-life at 2 μM: > 289 min
  remaining at 0 h, 2 μM: 100%
  remaining at 10 min, 2 μM: 98%
  remaining at 0.5 h, 2 μM: 97.8%
  remaining at 1 h, 2 μM: 90.9%
  remaining at 2 h, 2 μM: 86.9%
HIV-1 CA monomer
  Kd: 16.1 ± 1.32 µM
In vitro [3]
  CLint scaled at 1 μM: 2480 mL/min/kg
  half-life at 1 μM: 0.5 min
  microsomal CLint at 1 μM: 2760 µL/min/mg
HIV-1 CA hexamer
  Kd: 7.2 ± 1.1 µM
HIV-1 CA hexamer; CA hexamers
  koff times higher than that of PF74: approximately 8.5 times
HIV-1 CA hexamer; SPR
  Ratio KD Monomer/KD Hexamer: 2.230
HIV-1 CA hexamer; off-rate measured for HIV-1 CA hexamer
  koff Hexamer: 0.151 ± 0.028 s⁻¹
[1]; 1 h, 1 μM
  Remaining (NCF = 60 min): 103.5%
  Remaining (T = 60 min): 0.0%
MT-4 cells
  CC50: 16.4 ± 3.38 µM

## COc1ccc(N(C)C(=O)[C@H](Cc2cc(F)cc(F)c2)NC(=O)CN2CCN(C(=O)c3ccc(NS(C)(=O)=O)cc3)CC2=O)cc1 [F2-7h, (S)-3-(3,5-difluorophenyl)-N-(4-methoxyphenyl)-N-methyl-2-(2-(4-(4-(methylsulfonamido)benzoyl)-2-oxopiperazin-1-yl)acetamido)propenamide]
HIV-2 (ROD)
  EC50: 183 ± 2.77 µM
HIV-1 (IIIB)
  EC50: 161 ± 15.4 µM
[4]
  CC50 at 5 days: > 190 µM
